Data published in patent US9815878B2, “Use of PEDF-derived polypeptides for preventing and/or ameliorating skin aging” (MacKay Memorial Hospital, priority 2012, dated 2017).

Legend:
dermal collagen [1] = experiment: Collagen content of UVB-damaged mouse skin, Masson's trichrome staining; format: in vivo, nude mice; details: 8-week UVB, then transdermal delivery for 2 weeks
Procedure: (§1) General histology was performed using hematoxylin and eosin (H&E) dye. Deparaffinized skin tissue sections were stained using Masson's Trichrome (Sigma-Aldrich, St. Louis, Mo.) according to the manufacturer's instructions; sections was examined and photographed by a Nikon Eclipse 80i light microscope (original magnification, ×400). For semi-quantitative analysis of collagen area, 10 fields from each slide were randomly selected under the light microscope, and the blue-stained area per entire area of the cross section (mm^2/mm^2) was measured using the Image-Pro Plus 4.5.1 system (Media Cybernetics).
Six-week-old female nude mice (BALB/cAnN.Cg-Foxn1nu/CrlNarl) were irradiated with ultraviolet B (UVB) on the back 5 times a week for an eight-week period using a bank of five UVB lamps (model XL-1000B, Spectrolinker™ apparatus; emission peak: 312 nm), placed about 20 cm above the backs of the animals. During the UVB exposure, the mice were allowed to move freely within the cage. […] The level of BrdU- and vimentin-double positive cells was expressed as the percentage of BrdU- and vimentin-double positive cells per total vimentin-positive cells (the BrdU/Vimentin Labeling Index). […]

dermal fibroblasts = experiment: Vimentin-positive fibroblast count in dermis of treated mice; format: in vivo, C57BL/6 mice; details: ointment plus microneedle (MN), specimens from Example 2
Procedure: Collagen is the major matrix component of the dermis and forms a tough fiber framework to provide the elastic property of the skin. This working example investigated whether the present PEDF peptides increase dermal collage content. Mice depilated as described in Example 1 were randomly assigned to several experimental groups and treated as follows. For each mouse, one side of the dorsal midline (about 2 cm^2) received 50 μl of ointment (the 29-mer, 20-mer, or DMSO-containing ointment) and a subsequent microneedle treatment; while the other side of the dorsal midline (about 2 cm^2) received 50 μl of the same ointment without the microneedle treatment. The treatment was given twice a week for two weeks, and the skin was left uncovered and harvested 14 days after the first treatment. Skin specimens were stained with Masson's trichrome stain (blue) for dermal collagen; representative images are provided in FIG. 2. The stained collagen area in the skin was quantified as taught above in the “Materials and Methods” section, and the results were normalized with the area of Vehicle/MN. […]
Specimens from Example 2, above, were also stained for the fibroblast marker, vimentin, and the vimentin-positive cells were counted under microscope.

dermal collagen [2] = experiment: Dermal collagen content, Masson's trichrome stained collagen area in depilated mouse skin; format: in vivo, C57BL/6 mice; details: for Collagen Area (fold): ointment plus microneedle (MN), twice a week for two weeks, day 14, normalized with Vehicle/MN; for collagen level (Masson's trichrome sections) versus vehicle/CT: ointment without microneedle treatment (CT)
Procedure: as §1
Collagen is the major matrix component of the dermis and forms a tough fiber framework to provide the elastic property of the skin. This working example investigated whether the present PEDF peptides increase dermal collage content. Mice depilated as described in Example 1 were randomly assigned to several experimental groups and treated as follows. For each mouse, one side of the dorsal midline (about 2 cm^2) received 50 μl of ointment (the 29-mer, 20-mer, or DMSO-containing ointment) and a subsequent microneedle treatment; while the other side of the dorsal midline (about 2 cm^2) received 50 μl of the same ointment without the microneedle treatment. The treatment was given twice a week for two weeks, and the skin was left uncovered and harvested 14 days after the first treatment. Skin specimens were stained with Masson's trichrome stain (blue) for dermal collagen; representative images are provided in FIG. 2. The stained collagen area in the skin was quantified as taught above in the “Materials and Methods” section, and the results were normalized with the area of Vehicle/MN. The level of type I collagen (COL1A1) was investigated by the above-described immunoblot analysis, and the results were normalized with the level of the vehicle/CT group.

type I collagen (COL1A1) = experiment: Type I collagen (COL1A1) level in mouse skin by immunoblot; format: in vivo, C57BL/6 mice; details: ointment plus microneedle (MN), twice a week for two weeks, day 14; normalized with vehicle/CT
Procedure: (§2) Skin tissues were homogenized in ice-cold lysis buffer containing 20 mM HEPES (pH 7.4), 150 mM NaCl, 1% SDS, 1 mM ethylenediamine tetraacetic acid (EDTA), 5 mM phenylmethanesulfonyl fluoride (PMSF), and 1 mM dithiothreitol (DTT), 1% Triton X-100, with freshly added protease inhibitor cocktail (Roche, Indianapolis, Ind.). Homogenates were then centrifuged at 12,000 g for 30 minutes at 4° C., and supernatants were then collected and stored at −70° C. Protein contents in lysates were determined using the Bradford assay. Whole cell lysates were prepared using the above lysis buffer. Aliquots of the lysates were then resolved on a SDS-PAGE and then electrotransferred to polyvinylidene difluoride (PVDF) membranes (Millipore, Bedford, Mass., USA) and processed for immunoblot analysis.
Antibodies used in the immunoblot study included anti-type I collagen 1A1 antibody (1:1000 dilution), anti-MMP-1 antibody (1:500 dilution) and anti-β-actin antibody (1:10000 dilution). Proteins of interest were detected using the appropriate IgG-HRP secondary antibody and ECL reagent (Amersham, Arlington Heights, Ill., USA). X-ray films were scanned on a Model GS-700 Imaging Densitometer (Bio-Rad Laboratories, Hercules, Calif.) and analyzed using Labworks 4.0 software. For quantification, blots from at least three independent experiments were used. […]

MMP-1 = experiment: UVB-induced MMP-1 protein expression in WS-1 cells, western blotting; format: cell-based, human; details: for MMP-1 Expression Level (%): Vehicle/UVB set to 100%; for MMP-1 protein level relative to vehicle/UVB group: pre-incubation with peptide
Procedure: Human skin fibroblast WS-1 cell line was obtained from Food Industry Research and Development Institute (Hsin-Chu, Taiwan). The WS-1 cells were maintained in a 37° C., 5% CO2 humidified incubator as monolayers in culture flasks. They were grown in 10% FBS-DMEM supplemented with 2 mM L-glutamine, 0.1 mM non-essential amino acids, 1% penicillin/streptomycin. For passage, near-confluent cells were sub-cultured by 0.25% trypsin/EDTA.
as §2
Antibodies used in the immunoblot study included anti-type I collagen 1A1 antibody (1:1000 dilution), anti-MMP-1 antibody (1:500 dilution) and anti-β-actin antibody (1:10000 dilution). Proteins of interest were detected using the appropriate IgG-HRP secondary antibody and ECL reagent (Amersham, Arlington Heights, Ill., USA). X-ray films were scanned on a Model GS-700 Imaging Densitometer (Bio-Rad Laboratories, Hercules, Calif.) and analyzed using Labworks 4.0 software. For quantification, blots from at least three independent experiments were used.
WS-1 were seeded on a six-well plate at a density of 1×10^5 cells per well and grown in the 10% FBS-DMEM growth medium for 24 hours and then incubated with 1% FBS-DMEM supplemented with or without 100 nM PEDF peptide for further 24 hours. The cells were washed twice with phosphate buffered saline (PBS) and exposed to UVB radiation covered with PBS. The UVB treatment was conducted in a cell culture hood by using a UVB lamp (model XL-1000B, Spectrolinker™ Inc.) at a final dose of 15 mJ/cm^2 for about 100 seconds. Cell viability was assayed using trapan blue exclusion assay (>95%). After UVB irradiation, PBS was replaced with 1% FBS-DMEM with or without PEDF peptide for further 48 hours and then protein extracts were assayed by western blotting for the expression of MMP-1 protein. Cells that were not subjected to UVB irradiation were used as control (normal). The expression level of MMP-1 was normalized with the expression level in the Vehicle/UVB group (set to 100%), and quantitative results are summarized in Table 6.

[3] = 100 nM peptide 24 h before and 48 h after UVB 15 mJ/cm^2

Row | Substance | collagen level in the dermis versus UVB/vehicle group (Masson's trichrome, FIG. 5) (dermal collagen [1]) | Vimentin+ Cells per mm^2 (dermal fibroblasts) [Cells per mm^2] | Collagen Area (fold) (dermal collagen [2]) | collagen level (Masson's trichrome sections) versus vehicle/CT (dermal collagen [2]) | COL1A1 Level (fold) (type I collagen (COL1A1)) | MMP-1 Expression Level (%) (MMP-1; [3]) | MMP-1 Expression Level (%) (MMP-1; 100 nM peptide, no UVB irradiation) | MMP-1 protein level relative to vehicle/UVB group (MMP-1)
1 | Ac-SLGAEQRTESIIHRALYYDLISSPDIHGT-NH2 [29-mer] | significantly enhanced | 1688 ± 197 | 1.7 ± 0.14 | no significant difference | 1.7 ± 0.24 | 42 ± 3.3 | 5 ± 2.3 | about half
2 | SLGAEQRTESIIHRALYYDL [20-mer, synthetic peptide corresponding to residues 93-112 of human PEDF] | significantly enhanced | 1745 ± 143 | 1.6 ± 0.11 | no significant difference | 1.8 ± 0.20 | 50 ± 5.1 |  | about half
